IC50 data for five compounds are collected here from BindingDB's records for doi:10.1021/acsmedchemlett.0c00626 (Pipeline Therapeutics, 2021).

The assay concerns the target T1, Muscarinic acetylcholine receptor M1 (Homo sapiens, UniProt P11229).
T1 sequence (P11229 whole entry): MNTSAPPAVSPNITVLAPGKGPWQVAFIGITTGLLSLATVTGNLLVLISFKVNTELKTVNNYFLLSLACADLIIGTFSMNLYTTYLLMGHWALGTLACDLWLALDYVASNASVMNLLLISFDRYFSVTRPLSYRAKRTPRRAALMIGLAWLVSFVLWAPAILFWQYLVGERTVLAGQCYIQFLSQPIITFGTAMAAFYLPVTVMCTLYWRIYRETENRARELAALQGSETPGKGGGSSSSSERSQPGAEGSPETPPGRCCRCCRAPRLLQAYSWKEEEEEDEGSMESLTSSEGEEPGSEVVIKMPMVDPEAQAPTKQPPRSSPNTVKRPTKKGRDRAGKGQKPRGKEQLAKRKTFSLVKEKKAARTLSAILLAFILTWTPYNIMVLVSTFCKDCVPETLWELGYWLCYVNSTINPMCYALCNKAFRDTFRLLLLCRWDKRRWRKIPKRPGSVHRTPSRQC
Briefly: Antagonist activity at human recombinant muscarinic receptor M1 expressed in CHO-K1 cells assessed as EC80 acetylcholine-induced calcium flux incubated for 30 mins. For orientation: A change in cytosolic calcium serves as a functional read-out for many receptors and channels.
For the compound `N#Cc1ccc(N2C3CCC2CN(C(=O)CCS(=O)(=O)c2cccc4ncsc24)C3)nc1`, the IC50 (usually the concentration that gives 50% inhibition) was found to be 1.6 nM. Turning to `N#Cc1ccc(N2CC3CCC2CN3C(=O)CCS(=O)(=O)c2cccc3ncsc23)nc1` (stereo not given), the IC50 amounted to 32 nM. As to `Cc1cc(F)cnc1N1CCN(C(=O)CCS(=O)(=O)c2cccc3ncsc23)[C@@H](C)C1`, the half-inhibitory concentration (IC50) stood at 79.4 nM. In the case of `Cc1cc(F)cnc1N1CCN(C(=O)COCc2cccc3ncsc23)[C@@H](C)C1`, the 50% inhibitory concentration (IC50) is 3980 nM.

For the compound `N#Cc1cnccc1N1CCN(C(=O)CCCc2cccc3ncccc23)CC1`, the IC50 worked out at 1250 nM.
